Measurements: patent US10662195B2, “Protein kinase conjugates and inhibitors” (Celgene Avilomics Research, Inc., priority 2009, dated 2020)
Read-outs that look alike come from different tables or passages of the source. Values belong to the molecule of their own block, whether it stands above or below them.

Key:
KDR = KDR (Homo sapiens, UniProt P35968); test: KDR Omnia continuous-read kinase assay; type: biochemical; set-up: purchased Invitrogen or BPS Bioscience PV3660 or 40301
Method: (§1) A. KDR and FLT-3 Omnia Assay for Potency Assessment:
(§2) The protocol below describes a continuous-read kinase assay to measure inherent potency of Avila Therapeutics' compounds against active KDR and FLT-3 enzymes. The assay was performed substantially as described by the vendor (Invitrogen, Carlsbad, Calif.; http://www.invitrogen.com/content.cfm?pageid=11338.)
Briefly, 10× stocks of KDR from Invitrogen or BPS Bioscience (PV3660 or 40301) and FLT-3 (PV3182) enzymes, 1.13×ATP (AS001A) and Y9-Sox or Y12-Sox peptide substrates (KCZ1001) were prepared in 1× kinase reaction buffer consisting of 20 mM Tris, pH 7.5, 5 mM MgCl2, 1 mM EGTA, 5 mM β-glycerophosphate, 5% glycerol (10× stock, KB002A) and 0.2 mM DTT (DS001A). 5 μL of enzyme were pre-incubated in a Corning (#3574) 384-well, white, non-binding surface microtiter plate (Corning, N.Y.) for 30 min at 27° C. with a 0.5 μL volume of 50% DMSO and serially diluted compounds prepared in 50% DMSO. Kinase reactions were started with the addition of 45 μL of the ATP/Y9 or Y5-Sox peptide substrate mix and monitored every 30-90 seconds for 60 minutes at λex360/λem485 in a Synergy^4 plate reader from BioTek (Winooski, Vt.). At the conclusion of each assay, progress curves from each well were examined for linear reaction kinetics and fit statistics (R^2, 95% confidence interval, absolute sum of squares). Initial velocity (0 minutes to 20+ minutes) from each reaction was determined from the slope of a plot of relative fluorescence units vs time (minutes) and then plotted against inhibitor concentration to estimate IC50 from Log [Inhibitor] vs Response, Variable Slope model in GraphPad Prism from GraphPad Software (San Diego, Calif.). […]
(§3) The reported IC50_APP and IC50 values are in units of nM.

FLT3 = molecular target: T1, FLT3 (Homo sapiens, UniProt P36888); test: FLT-3 Omnia continuous-read kinase assay; type: biochemical
T1 construct: purchased PV3182
T1 sequence (P36888 27-993): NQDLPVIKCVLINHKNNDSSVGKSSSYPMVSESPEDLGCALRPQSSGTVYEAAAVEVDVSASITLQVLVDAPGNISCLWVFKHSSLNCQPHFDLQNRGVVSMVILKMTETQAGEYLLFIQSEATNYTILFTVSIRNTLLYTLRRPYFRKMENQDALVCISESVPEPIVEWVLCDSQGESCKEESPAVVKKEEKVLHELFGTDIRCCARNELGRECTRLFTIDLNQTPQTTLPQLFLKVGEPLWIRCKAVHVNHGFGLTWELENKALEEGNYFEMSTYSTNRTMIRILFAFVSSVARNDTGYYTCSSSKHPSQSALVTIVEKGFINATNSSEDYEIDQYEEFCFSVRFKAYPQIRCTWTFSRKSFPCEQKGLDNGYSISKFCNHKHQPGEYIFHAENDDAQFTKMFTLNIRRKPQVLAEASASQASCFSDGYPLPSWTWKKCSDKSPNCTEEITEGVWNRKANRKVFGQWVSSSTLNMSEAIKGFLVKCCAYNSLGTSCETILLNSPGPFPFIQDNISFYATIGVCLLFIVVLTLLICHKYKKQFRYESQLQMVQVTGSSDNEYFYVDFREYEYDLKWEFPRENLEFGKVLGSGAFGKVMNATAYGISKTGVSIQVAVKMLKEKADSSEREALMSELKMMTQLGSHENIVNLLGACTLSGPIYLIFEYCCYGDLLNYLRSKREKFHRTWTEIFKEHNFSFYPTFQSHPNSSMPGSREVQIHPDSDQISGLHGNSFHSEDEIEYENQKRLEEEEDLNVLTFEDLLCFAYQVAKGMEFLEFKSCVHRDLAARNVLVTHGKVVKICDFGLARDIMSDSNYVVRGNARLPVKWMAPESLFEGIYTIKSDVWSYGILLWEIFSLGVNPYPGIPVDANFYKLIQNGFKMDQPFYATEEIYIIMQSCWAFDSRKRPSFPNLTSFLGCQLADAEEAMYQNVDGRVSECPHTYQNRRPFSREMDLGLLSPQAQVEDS
Method: as §1, §2
Briefly, 10× stocks of KDR from Invitrogen or BPS Bioscience (PV3660 or 40301) and FLT-3 (PV3182) enzymes, 1.13×ATP (AS001A) and Y9-Sox or Y12-Sox peptide substrates (KCZ1001) were prepared in 1× kinase reaction buffer consisting of 20 mM Tris, pH 7.5, 5 mM MgCl2, 1 mM EGTA, 5 mM β-glycerophosphate, 5% glycerol (10× stock, KB002A) and 0.2 mM DTT (DS001A). 5 μL of enzyme were pre-incubated in a Corning (#3574) 384-well, white, non-binding surface microtiter plate (Corning, N.Y.) for 30 min at 27° C. with a 0.5 μL volume of 50% DMSO and serially diluted compounds prepared in 50% DMSO. Kinase reactions were started with the addition of 45 μL of the ATP/Y9 or Y5-Sox peptide substrate mix and monitored every 30-90 seconds for 60 minutes at λex360/λem485 in a Synergy^4 plate reader from BioTek (Winooski, Vt.). At the conclusion of each assay, progress curves from each well were examined for linear reaction kinetics and fit statistics (R^2, 95% confidence interval, absolute sum of squares). Initial velocity (0 minutes to 20+ minutes) from each reaction was determined from the slope of a plot of relative fluorescence units vs time (minutes) and then plotted against inhibitor concentration to estimate IC50 from Log [Inhibitor] vs Response, Variable Slope model in GraphPad Prism from GraphPad Software (San Diego, Calif.).
[FLT-3]=15 nM, [ATP]=500 μM and [Y5-Sox peptide]=10 μM (ATP KMapp=470 μM)
as §3

BTK = BTK (Homo sapiens, UniProt Q06187); test: Omnia assay for potency assessment against BTK; type: biochemical
Sequence of BTK (Q06187 whole entry): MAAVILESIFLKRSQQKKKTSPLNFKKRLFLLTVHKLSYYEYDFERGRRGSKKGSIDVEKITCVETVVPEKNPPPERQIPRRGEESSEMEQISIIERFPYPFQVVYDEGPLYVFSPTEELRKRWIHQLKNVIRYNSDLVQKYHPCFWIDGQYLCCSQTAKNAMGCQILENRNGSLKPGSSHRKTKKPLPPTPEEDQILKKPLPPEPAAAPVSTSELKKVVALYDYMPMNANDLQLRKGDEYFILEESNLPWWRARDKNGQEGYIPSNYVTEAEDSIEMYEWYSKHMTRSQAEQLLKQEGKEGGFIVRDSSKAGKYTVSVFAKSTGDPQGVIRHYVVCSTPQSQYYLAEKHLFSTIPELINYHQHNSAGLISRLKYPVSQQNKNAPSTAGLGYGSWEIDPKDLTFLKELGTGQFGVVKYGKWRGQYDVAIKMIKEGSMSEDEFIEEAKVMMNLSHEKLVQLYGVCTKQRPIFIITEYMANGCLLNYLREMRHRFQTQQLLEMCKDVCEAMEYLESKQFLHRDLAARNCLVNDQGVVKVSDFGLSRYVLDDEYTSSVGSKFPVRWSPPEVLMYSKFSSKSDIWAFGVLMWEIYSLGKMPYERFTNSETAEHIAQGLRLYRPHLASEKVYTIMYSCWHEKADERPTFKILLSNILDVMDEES
Excerpt: B. Omnia Assay Protocol for Potency Assessment Against BTK
Below describes the protocol using EGFR-WT and EGFR-T790M/L858R and the protocol BTK-optimized reagent conditions then follow.
The mechanics of the assay platform are best described by the vendor (Invitrogen, Carlsbad, Calif.) on their website at the following URL: http://www.invitrogen.com/content.cfm?pageid=11338 or http://www.invitrogen.com/site/us/en/home/Products-and-Services/Applications/Drug-Discovery/Target-and-Lead-Identification-and-Validation/KinaseBiology/KB-Misc/Biochemical-Assays/Omnia-Kinase-Assays.html.
Briefly, 10× stocks of EGFR-WT (PV3872) from Invitrogen and EGFR-T790M/L858R (40350) from BPS Bioscience, San Diego, Calif., 1.13×ATP (AS001A) and appropriate Tyr-Sox conjugated peptide substrates (KCZ1001) were prepared in 1× kinase reaction buffer consisting of 20 mM Tris, pH 7.5, 5 mM MgCl2, 1 mM EGTA, 5 mM β-glycerophosphate, 5% glycerol (10× stock, KB002A) and 0.2 mM DTT (DS001A). 5 μL of each enzyme were pre-incubated in a Corning (#3574) 384-well, white, non-binding surface microtiter plate (Corning, N.Y.) for 30 min. at 27° C. with a 0.5 μL volume of 50% DMSO and serially diluted compounds prepared in 50% DMSO. Kinase reactions were started with the addition of 45 μL of the ATP/Tyr-Sox peptide substrate mix and monitored every 30-90 seconds for 60 minutes at λex360/λem485 in a Synergy^4 plate reader from BioTek (Winooski, Vt.). At the conclusion of each assay, progress curves from each well were examined for linear reaction kinetics and fit statistics (R^2, 95% confidence interval, absolute sum of squares). Initial velocity (0 minutes to ˜30 minutes) from each reaction was determined from the slope of a plot of relative fluorescence units vs time (minutes) and then plotted against inhibitor concentration to estimate IC50 from log [Inhibitor] vs Response, Variable Slope model in GraphPad Prism from GraphPad Software (San Diego, Calif.).
The modified BTK-optimized reagent conditions for the above protocol are:
[BTK]=5 nM, [ATP]=[…], [Y5-Sox]=[…] (ATP KMapp˜[…]).
as §3

CKIT = CKIT (Homo sapiens, UniProt P10721); test: c-Kit Omnia kinase assay; type: biochemical; settings: read-out: IC50_APP CKIT
Sequence of CKIT (P10721 26-976): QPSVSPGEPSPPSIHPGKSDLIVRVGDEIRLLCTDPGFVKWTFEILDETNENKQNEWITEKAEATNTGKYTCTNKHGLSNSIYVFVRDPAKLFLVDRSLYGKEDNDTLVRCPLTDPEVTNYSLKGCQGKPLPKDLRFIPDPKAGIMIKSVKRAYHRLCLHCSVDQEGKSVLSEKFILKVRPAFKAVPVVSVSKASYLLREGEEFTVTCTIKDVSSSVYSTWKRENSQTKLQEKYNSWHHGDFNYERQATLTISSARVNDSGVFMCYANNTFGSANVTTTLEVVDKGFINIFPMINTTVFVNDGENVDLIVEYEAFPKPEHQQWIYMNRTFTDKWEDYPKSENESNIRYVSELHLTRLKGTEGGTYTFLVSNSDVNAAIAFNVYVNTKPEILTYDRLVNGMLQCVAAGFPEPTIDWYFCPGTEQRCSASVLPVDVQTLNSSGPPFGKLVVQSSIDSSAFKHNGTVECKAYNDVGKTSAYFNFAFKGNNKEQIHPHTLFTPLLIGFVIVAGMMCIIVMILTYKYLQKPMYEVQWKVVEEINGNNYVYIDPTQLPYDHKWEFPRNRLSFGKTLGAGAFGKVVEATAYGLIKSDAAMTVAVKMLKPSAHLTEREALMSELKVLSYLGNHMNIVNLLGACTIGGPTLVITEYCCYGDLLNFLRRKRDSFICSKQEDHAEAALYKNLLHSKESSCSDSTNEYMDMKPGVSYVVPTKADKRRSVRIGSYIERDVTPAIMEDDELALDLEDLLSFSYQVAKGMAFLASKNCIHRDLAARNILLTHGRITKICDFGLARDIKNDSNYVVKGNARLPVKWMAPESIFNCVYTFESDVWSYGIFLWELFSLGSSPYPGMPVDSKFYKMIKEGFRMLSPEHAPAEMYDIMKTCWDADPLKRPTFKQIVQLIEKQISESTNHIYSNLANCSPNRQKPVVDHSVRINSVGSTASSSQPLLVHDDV

CKIT D816V = CKIT D816V (Homo sapiens, UniProt P10721, D816V); test: c-Kit mutant Omnia kinase assay; type: biochemical; settings: read-out: IC50_APP CKIT D816V
Sequence of CKIT D816V (P10721 26-976 D816V): as the sequence (P10721 26-976) above, with D791V counted along it

FAK (PTK2) = FAK (PTK2) (Homo sapiens, UniProt Q05397); test: Mass spectral analysis of intact FAK after incubation with compound; type: binding; settings: 1 hr, 10× excess of compound to protein, intact protein MALDI
Sequence of FAK (PTK2) (Q05397 whole entry): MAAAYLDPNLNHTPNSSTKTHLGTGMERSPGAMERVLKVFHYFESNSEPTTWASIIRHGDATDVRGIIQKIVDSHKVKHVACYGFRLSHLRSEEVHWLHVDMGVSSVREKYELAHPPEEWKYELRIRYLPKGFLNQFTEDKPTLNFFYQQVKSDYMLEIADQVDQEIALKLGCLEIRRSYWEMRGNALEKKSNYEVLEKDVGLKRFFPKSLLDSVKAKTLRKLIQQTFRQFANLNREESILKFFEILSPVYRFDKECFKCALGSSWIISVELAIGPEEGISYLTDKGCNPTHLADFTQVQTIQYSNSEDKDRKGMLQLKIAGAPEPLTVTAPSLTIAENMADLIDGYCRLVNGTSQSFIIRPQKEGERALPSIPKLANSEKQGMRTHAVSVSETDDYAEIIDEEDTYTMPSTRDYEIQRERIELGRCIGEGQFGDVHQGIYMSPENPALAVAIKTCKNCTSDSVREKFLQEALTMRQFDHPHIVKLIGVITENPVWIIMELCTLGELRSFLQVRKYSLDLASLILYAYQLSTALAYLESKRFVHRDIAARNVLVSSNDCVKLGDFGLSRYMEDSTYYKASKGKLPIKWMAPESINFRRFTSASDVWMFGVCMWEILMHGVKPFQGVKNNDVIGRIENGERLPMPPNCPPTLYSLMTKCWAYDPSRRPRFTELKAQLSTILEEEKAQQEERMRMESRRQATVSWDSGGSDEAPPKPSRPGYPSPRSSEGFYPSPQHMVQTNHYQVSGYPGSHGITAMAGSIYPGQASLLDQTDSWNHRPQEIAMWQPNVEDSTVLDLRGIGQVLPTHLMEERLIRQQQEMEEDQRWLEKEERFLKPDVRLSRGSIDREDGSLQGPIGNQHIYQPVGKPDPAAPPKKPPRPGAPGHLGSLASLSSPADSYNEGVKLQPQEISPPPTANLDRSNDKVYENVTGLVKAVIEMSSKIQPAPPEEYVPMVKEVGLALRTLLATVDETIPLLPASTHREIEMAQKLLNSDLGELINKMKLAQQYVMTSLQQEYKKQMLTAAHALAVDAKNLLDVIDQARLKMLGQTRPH
Method: Intact FAK (PTK2) was incubated for 1 hr at a 10× fold access of compound IV-29 to protein. 3 ul aliquots of the samples were diluted with 10 ul of 0.1% TFA prior to micro C4 ZipTipping directly onto the MALDI target using Sinapinic acid as the desorption matrix (10 mg/ml in 0.1% TFA:Acetonitrile 50:50). Mass spec analysis was run on intact FAK (PTK2) protein (m/z 146,672 Da), and on FAK that was incubated with compound IV-29 (mw=669.2).

[1] = 30 min pre-incubation, read-out: IC50_APP KDR
[2] = 30 min pre-incubation, [ATP]=500 μM, read-out: IC50_APP FLT3
[3] = 30 min pre-incubation, read-out: IC50_APP BTK
[4] = reversible reference compounds, read-out: IC50 KDR
[5] = reversible reference compounds, read-out: IC50 BTK

Sequence of KDR (P35968 20-1356): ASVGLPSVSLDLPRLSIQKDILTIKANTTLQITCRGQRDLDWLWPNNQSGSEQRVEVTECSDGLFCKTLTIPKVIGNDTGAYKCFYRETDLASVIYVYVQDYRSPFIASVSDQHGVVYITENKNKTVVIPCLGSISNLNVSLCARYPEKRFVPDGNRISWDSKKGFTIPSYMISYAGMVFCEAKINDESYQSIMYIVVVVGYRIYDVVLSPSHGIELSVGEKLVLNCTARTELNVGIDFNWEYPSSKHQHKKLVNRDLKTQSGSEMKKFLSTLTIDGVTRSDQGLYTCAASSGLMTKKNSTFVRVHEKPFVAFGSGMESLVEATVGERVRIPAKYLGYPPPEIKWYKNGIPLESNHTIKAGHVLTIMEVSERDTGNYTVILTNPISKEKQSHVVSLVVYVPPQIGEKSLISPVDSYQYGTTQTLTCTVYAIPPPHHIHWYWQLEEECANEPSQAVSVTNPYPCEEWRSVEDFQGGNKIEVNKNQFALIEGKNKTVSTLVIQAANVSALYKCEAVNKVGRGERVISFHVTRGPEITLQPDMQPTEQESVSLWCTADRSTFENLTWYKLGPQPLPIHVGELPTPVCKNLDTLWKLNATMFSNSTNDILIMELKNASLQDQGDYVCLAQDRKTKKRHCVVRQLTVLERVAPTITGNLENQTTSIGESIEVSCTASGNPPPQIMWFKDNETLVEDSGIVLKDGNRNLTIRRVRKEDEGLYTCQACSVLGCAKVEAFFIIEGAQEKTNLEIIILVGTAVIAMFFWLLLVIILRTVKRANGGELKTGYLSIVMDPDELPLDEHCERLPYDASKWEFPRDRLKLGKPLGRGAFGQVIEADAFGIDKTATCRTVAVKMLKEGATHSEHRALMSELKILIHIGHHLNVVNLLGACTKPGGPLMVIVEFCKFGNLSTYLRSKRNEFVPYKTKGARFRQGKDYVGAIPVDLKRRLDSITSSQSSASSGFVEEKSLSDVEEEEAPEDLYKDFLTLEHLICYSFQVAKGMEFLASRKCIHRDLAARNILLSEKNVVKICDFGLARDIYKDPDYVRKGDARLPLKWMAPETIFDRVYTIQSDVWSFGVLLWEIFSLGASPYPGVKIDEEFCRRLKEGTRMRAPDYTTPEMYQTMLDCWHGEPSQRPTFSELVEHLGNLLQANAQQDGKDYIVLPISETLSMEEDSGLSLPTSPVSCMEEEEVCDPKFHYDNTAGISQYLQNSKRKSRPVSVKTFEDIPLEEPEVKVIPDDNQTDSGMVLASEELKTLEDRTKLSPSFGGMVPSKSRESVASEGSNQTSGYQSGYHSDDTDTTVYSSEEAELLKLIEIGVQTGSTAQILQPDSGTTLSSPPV

SMILES: CCC(=O)Nc1ccc(Sc2nc(Nc3ncc(C#N)s3)cc(N3CCN(C)CC3)n2)cc1 [Reversible Reference Compound 1, N-(4-(4-(5-Cyanothiazol-2-ylamino)-6-(4-methylpiperazin-1-yl)pyrimidin-2-ylthio)phenyl)propionamide, reference compound]
IC50 (KDR; [4]): 254 nM
IC50 (FLT3; reversible reference compounds, read-out: IC50 FLT3): 5.84 nM
IC50 (BTK; [5]): 1640 nM

SMILES: CCC(=O)N1CCC(Sc2nc(Nc3ncc(C#N)s3)cc(N3CCN(C)CC3)n2)CC1 [Reversible Reference Compound 2, 2-(2-(1-Propionylpiperidin-4-ylthio)-6-(4-methylpiperazin-1-yl)pyrimidin-4-ylamino)thiazole-5-carbonitrile, reference compound]
IC50 (KDR; [4]): 95.7 nM
IC50 (BTK; [5]): 184 nM

SMILES: CNC(=O)c1cc(Oc2ccc(NC(=O)Nc3ccc(NC(=O)/C=C/CN(C)C)c(C(F)(F)F)c3)cc2)ccn1 [XVIII-12]
IC50 (CKIT): 10.4 nM
IC50 (CKIT D816V): 2.5 nM
IC50 (KDR; [1]): 148 nM
IC50 (FLT3; [2]): 1.07 nM

SMILES: C=CC(=O)Nc1cc(NC(=O)Nc2ccc(Oc3ccnc(C(=O)NC)c3)cc2)ccc1Cl [XVIII-15]
IC50 (KDR; [1]): 462 nM

SMILES: C=CC(=O)N(C)c1ccc(NC(=O)Nc2ccc(Oc3ccnc(C(=O)NC)c3)cc2)cc1 [XVIII-16, 4-(4-(3-(4-(N-methylacrylamido)phenyl)ureido)phenoxy)-N-methylpicolinamide]
IC50 (KDR; [1]): 1340 nM

Further lines, results first:

IC50 (KDR; [1]): 39.3 nM
IC50 (FLT3; [2]): 3.15 nM
IC50 (BTK; [3]): 6170 nM
SMILES: C=CC(=O)Nc1ccc(Sc2nc(Nc3ncc(C#N)s3)cc(N3CCN(C)CC3)n2)cc1 [II-1, N-(4-(4-(5-Cyanothiazol-2-ylamino)-6-(4-methylpiperazin-1-yl)pyrimidin-2-ylthio)phenyl)acrylamide]

IC50 (KDR; [1]): 290 nM
IC50 (BTK; [3]): 459 nM
SMILES: CC#CC(=O)N1CCC(Sc2nc(Nc3ncc(C#N)s3)cc(N3CCN(C)CC3)n2)CC1 [II-3]

IC50 (KDR; [1]): 111 nM
IC50 (BTK; [3]): 5080 nM
SMILES: C=CC(=O)NCCSc1nc(Nc2ncc(C#N)s2)cc(N2CCN(C)CC2)n1 [II-4, N-(2-(4-(5-cyanothiazol-2-ylamino)-6-(4-methylpiperazin-1-yl)pyrimidin-2-ylthio)ethyl)acrylamide]

IC50 (KDR; [1]): 39.7 nM
IC50 (BTK; [3]): 106 nM
SMILES: CN(C)C/C=C/C(=O)N1CCC(Sc2nc(Nc3ncc(C#N)s3)cc(N3CCN(C)CC3)n2)CC1 [II-5]

IC50 (CKIT): 114 nM
IC50 (CKIT D816V): 127 nM
IC50 (KDR; [1]): 15.2 nM
IC50 (FLT3; [2]): 3.76 nM
SMILES: C=CC(=O)Nc1ccc(Sc2nc(Nc3cc(C)n[nH]3)cc(N3CCN(C)CC3)n2)cc1 [II-53, N-(4-(4-(3-Methyl-1H-pyrazol-5-ylamino)-6-(4-methylpiperiazin-1-yl)pyrimidin-2ylthio)phenyl)acrylamide]

modification of FAK (PTK2) by compound, mass spec (FAK (PTK2)): partial modification of FAK
SMILES: C=CC(=O)Nc1ccc(S(=O)(=O)N2CCN(c3ccc(Nc4ncc(Cl)c(Nc5ccccc5C(=O)NC)n4)c(OC)c3)CC2)cc1 [IV-31, 2-(2-{4-[4-(4-Acryloylamino-benzenesulfonyl)-piperazin-1-yl]-2-methoxy-phenylamino}-5-chloro-pyrimidin-4-ylamino)-N-methyl-benzamide]
